{"source": "paper PMC4467398", "about": "“Preclinical antitumor activity of ST7612AA1: a new oral thiol-based histone deacetylase (HDAC) inhibitor” (Oncotarget, 2014)", "system": "DOHH2 and TMD8 DLBCL cells", "assay": "Gene expression profiling (HumanHT-12 v4 BeadChip, limma), ST7612AA1 300 nM 8 hrs vs DMSO", "type": "cell-based, human", "details": "300 nM 8 hrs vs DMSO"}
{"molecule": "CC(=O)SCCCCC[C@H](NC(=O)[C@H]1CCC(=O)N1)C(=O)Nc1ccccc1", "note": "[ST7612AA1]", "values": [{"measurement": "log ratio TCEA2 (probe ILMN_1665526)", "result": "8.50E-01"}, {"measurement": "log ratio TCEAL3 (probe ILMN_1734190)", "result": "7.88E-01"}, {"measurement": "log ratio TCERG1 (ILMN_1706839)", "result": "-8.49E-01"}, {"measurement": "log ratio TCFL5 (ILMN_1814247)", "result": "6.07E-01"}, {"measurement": "log ratio TCTN1 (probe ILMN_1685124)", "result": "7.81E-01"}, {"measurement": "log ratio TESK2 (probe ILMN_1654370)", "result": "8.37E-01"}, {"measurement": "log ratio TFB2M (ILMN_2067709)", "result": "-7.83E-01"}, {"measurement": "log ratio THOC6 (ILMN_1679880)", "result": "-5.93E-01"}, {"measurement": "log ratio THUMPD2 (ILMN_1787511)", "result": "-6.05E-01"}, {"measurement": "log ratio TIMM10 (ILMN_1765332)", "result": "-1.04E+00"}, {"measurement": "log ratio TLK1 (ILMN_1811029)", "result": "-9.26E-01"}, {"measurement": "log ratio TMBIM4 (ILMN_1664750)", "result": "-9.76E-01"}, {"measurement": "log ratio TMED1 (ILMN_1693045)", "result": "-9.13E-01"}, {"measurement": "log ratio TMEM14A (probe ILMN_1785191)", "result": "7.29E-01"}, {"measurement": "log ratio TMEM49 (probe ILMN_1692754)", "result": "8.49E-01"}, {"measurement": "log ratio TMEM154 (probe ILMN_2088124)", "result": "6.89E-01"}, {"measurement": "log ratio TMEM179B (ILMN_3241979)", "result": "5.96E-01"}, {"measurement": "log ratio TMEM184B (ILMN_1747460)", "result": "6.31E-01"}, {"measurement": "log ratio TMEM199 (ILMN_1748481)", "result": "-6.12E-01"}, {"measurement": "log ratio TMOD2 (probe ILMN_3250273)", "result": "7.57E-01"}, {"measurement": "log ratio TMPO (ILMN_1768816)", "result": "-8.22E-01"}, {"measurement": "log ratio TNFRSF17 (ILMN_1768016)", "result": "-1.76E+00"}, {"measurement": "log ratio TOB1 (ILMN_1672004)", "result": "6.63E-01"}, {"measurement": "log ratio TPRG1L (probe ILMN_1727479)", "result": "7.86E-01"}, {"measurement": "log ratio TPST1 (probe ILMN_1651950)", "result": "7.51E-01"}, {"measurement": "log ratio TPST2 (probe ILMN_1695432)", "result": "7.18E-01"}, {"measurement": "log ratio TRAFD1 (probe ILMN_1758250)", "result": "8.52E-01"}, {"measurement": "log ratio TRIM4 (ILMN_2323385)", "result": "6.43E-01"}, {"measurement": "log ratio TRIM6 (ILMN_1656910)", "result": "5.98E-01"}, {"measurement": "log ratio TRIM8 (ILMN_1746704)", "result": "-8.66E-01"}, {"measurement": "log ratio TRIM21 (ILMN_1678054)", "result": "-8.09E-01"}, {"measurement": "log ratio TRIM22 (ILMN_1779252)", "result": "-8.73E-01"}, {"measurement": "log ratio TRIP6 (ILMN_1713990)", "result": "-1.16E+00"}, {"measurement": "log ratio TRMT1 (ILMN_1812940)", "result": "-8.45E-01"}, {"measurement": "log ratio TRMT11 (ILMN_1805481)", "result": "-8.20E-01"}, {"measurement": "log ratio TSEN2 (ILMN_1746393)", "result": "-8.42E-01"}, {"measurement": "log ratio TSPAN4 (ILMN_2340027)", "result": "5.99E-01"}, {"measurement": "log ratio TTC27 (ILMN_1757730)", "result": "-1.28E+00"}, {"measurement": "log ratio TTLL12 (ILMN_1663113)", "result": "-6.01E-01"}, {"measurement": "log ratio TUBG2 (ILMN_1701052)", "result": "6.65E-01"}, {"measurement": "log ratio TXNDC14 (ILMN_1799367)", "result": "-8.38E-01"}, {"measurement": "log ratio TYMS (ILMN_1806040)", "result": "-1.10E+00"}, {"measurement": "log ratio TYSND1 (ILMN_1775677)", "result": "-1.15E+00"}, {"measurement": "log ratio TYW3 (ILMN_1726842)", "result": "-9.88E-01"}, {"measurement": "log ratio U2AF2 (ILMN_1768930)", "result": "-1.25E+00"}, {"measurement": "log ratio UBE2A (probe ILMN_2307455)", "result": "7.18E-01"}, {"measurement": "log ratio UBE2C (ILMN_2265654)", "result": "-7.99E-01"}, {"measurement": "log ratio UBE2D4 (ILMN_1707084)", "result": "-8.99E-01"}, {"measurement": "log ratio UBE2H (ILMN_1757644)", "result": "6.49E-01"}, {"measurement": "log ratio UBE2J1 (ILMN_1713759)", "result": "-1.05E+00"}, {"measurement": "log ratio UBTD1 (probe ILMN_1794914)", "result": "8.56E-01"}, {"measurement": "log ratio UBXN8 (ILMN_1731891)", "result": "-8.44E-01"}, {"measurement": "log ratio UCK2 (ILMN_1768662)", "result": "-9.43E-01"}, {"measurement": "log ratio UCP2 (probe ILMN_1685625)", "result": "7.30E-01"}, {"measurement": "log ratio UNC45A (ILMN_1726434)", "result": "6.72E-01"}, {"measurement": "log ratio UNC84A (probe ILMN_1772316)", "result": "7.21E-01"}, {"measurement": "log ratio UNG (ILMN_1683120)", "result": "-1.39E+00"}, {"measurement": "log ratio UPLP (probe ILMN_3236765)", "result": "7.46E-01"}, {"measurement": "log ratio UPP1 (ILMN_1798256)", "result": "6.07E-01"}, {"measurement": "log ratio URB2 (ILMN_3249406)", "result": "-5.93E-01"}, {"measurement": "log ratio USP13 (ILMN_3251526)", "result": "-5.97E-01"}, {"measurement": "log ratio VASH2 (probe ILMN_1692698)", "result": "7.31E-01"}, {"measurement": "log ratio VPS8 (probe ILMN_1678268)", "result": "7.47E-01"}, {"measurement": "log ratio VRK2 (ILMN_1750088)", "result": "-9.87E-01"}, {"measurement": "log ratio VRK3 (ILMN_1771697)", "result": "6.75E-01"}, {"measurement": "log ratio WARS2 (ILMN_2323979)", "result": "-5.97E-01"}, {"measurement": "log ratio WDR12 (ILMN_1770692)", "result": "-7.92E-01"}, {"measurement": "log ratio WDR12 (ILMN_2045729)", "result": "-8.64E-01"}, {"measurement": "log ratio WDR19 (probe ILMN_1655117)", "result": "7.77E-01"}, {"measurement": "log ratio WIBG (ILMN_1751431)", "result": "-1.01E+00"}, {"measurement": "log ratio WIPI2 (ILMN_2321292)", "result": "6.22E-01"}, {"measurement": "log ratio WNK1 (ILMN_1876924)", "result": "6.14E-01"}, {"measurement": "log ratio YARS2 (ILMN_1782635)", "result": "-8.22E-01"}, {"measurement": "log ratio YDJC (ILMN_1812580)", "result": "-8.57E-01"}, {"measurement": "log ratio YPEL3 (ILMN_1791147)", "result": "6.17E-01"}]}
